Measured values as given in patent EP3324923B1, “COMPOSITIONS AND METHODS USING PALYTHINE” (King's College London, priority 2015, dated 2017).

Tests used:
[1] = Photostability under increasing doses of solar simulated radiation (absorbance); format: physicochemical
Procedure: palythine was extracted from the red algae Palmaria decipiens using a methanol extraction (Confirmed by HPLC & LC-MS). The absorbance profile was determined and then the extract was exposed to increasing doses of solar simulated radiation (SSR) from a solar simulator (conforming to COLIPA standards). The absorbance profile was measured to determine photostability. Compositions according to the invention (in this example solutions of palythine) were prepared at different palythine concentrations (0.3% to 10%), as well as controls comprising 0% palythine, and HaCat keratinocytes were irradiated with SSR or UVA radiation through the solutions, which were placed on top of the cells.
Palythine was exposed to increasing doses of solar simulated radiation and absorbance measured. The absorbance spectrum of the palythine was measured between 280-400 nm using a Spectra Max 384 Plus (Molecular Devices; California, USA) spectrophotometer. Referring to figure 18, we show the photostability of palythine after exposure to increasing doses of solar simulated radiation. Palythine (0.0001% w/v palythine extracted from red algae Chondrus yendoi in PBS) was exposed to increasing doses of solar simulated radiation and the absorbance was measured to determine photostability.

HaCaT keratinocytes = experiment: Cell viability by neutral red uptake assay after irradiation; format: cell-based, human; conditions: 20J/cm2 of SSR; 0.3 %, 4 % or 10 % (w/v) palythine; 24 hrs later; n=3; p=<0.0001
Procedure: All assays were performed on HaCat cells grown as a 70-80 % confluent monolayer in multiwell plates. They were washed three times in PBS and covered with palythine dissolved in PBS at differing concentrations (0, 0.1, 0.3 %, 4 % and 10 % w/v). The cells were then irradiated with either SSR or UVA radiation (5-20 J/cm^2 or 20 J/cm^2 respectively). After irradiation the palythine solution was removed and the cells washed a further three times and replaced in media or processed immediately depending on the experimental design.
Cell viability was measured 24 hours post irradiation using the neutral red uptake assay. Neutral red solution (4µgml^-1 in growth medium) (Sigma, UK) was added to the cells and they were incubated at 37 °C, 5 % CO2 for 2 hrs. Cells were washed three times in PBS to remove excess neutral red solution and then the destain solution (50 % v/v ethanol, 49 % v/v ddH2O, 1 % v/v glacial acetic acid) was added. Optical density was measured at 540 nm.
HaCaT keratinocytes were untreated, exposed to 20J/cm2 of SSR with PBS alone, 0.3 % (w/v), 4 % (w/v) or 10 % (w/v) of palythine or 10 % (w/v) palythine without exposure to UVR. Cell viability was measured 24 hrs later by the neutral red assay. Columns represent the mean ± SD (n=3).

HaCaT cells = experiment: Reactive oxygen species detection by FACS analysis (carboxy-H2DCFDA), Example 8; format: cell-based, human; conditions: for Median corrected Average: FACS Analysis - Reactive Oxygen Species
Procedure: Intracellular ROS generation was measured using the detection agent 5-(and-6)-carboxy-2',7'- dichlorodihydrofluorescein diacetate (carboxy-H2DCFDA). […] More specifically, total intracellular ROS generation was studied using 5-(and-6)-carboxy-2',7'-dichlorodihydrofluorescein diacetate (carboxy-H2DCFDA).
Powdered sunscreens were dissolved in PBS (Sigma-Aldrich, UK) at a concentration in which they can dissolve fully (0-0.3%). They were then applied (200ul/well) to wells of a 24 well plate containing a washed monolayer of cells. Cells were then irradiated and the sunscreen removed and washed post treatment.
Irradiation was carried out on cells in monolayers at a distance of 3 cm (Solar Simulator) in cold PBS or PBS + sunscreen. The plate was always placed on a cooling platform at 4°C to avoid overheating of the cells. Unirradiated samples were maintained in PBS for the same time and temperature as irradiated samples.
Detection of reactive oxygen species was performed by FACS analysis using 5-(and 6-)-carboxy-2,',7'-dichlorodihydrofluorescein diacetate (Carboy-H2-DCFDA) (Invitrogen, Paisley, UK). Carboy-H2-DCFDA is a non-fluorescent dye that is activated into a fluorescent dye by ROS cleaving acetate groups from the molecule.
Cells were grown in a 12 well plate washed twice in PBS and irradiated +/- sunscreens. Control cells were unirradiated and positive controls were treated with 0.03% hydrogen peroxide for 5 minutes. Cells were washed again twice in PBS and then 1ML of Carboy-H2-DCFDA diluted in PBS to a concentration of 5uM was added to each well and were incubated for 2 minutes in a cell culture incubator in the dark (95% air, 5% CO2, 37°C, humidified). Each well was then washed twice with PBS to remove any excess dye.
Cells were then trypsinised, centrifuged at 400g for 4 minutes at 4°C and resuspended in 0.5ml of PBS + 0.1%w/v BSA and transferred to FACS tubes. Samples were then analysed with a Becton Dickson CANTO 3. The viable proportion of the cell population was quantified by the addition of 2.5ug/ml of propidium iodide immediately before the analysis.

photostability ([1]; after 60 standard erythema doses (SED) of SSR, palythine from Palmaria decipiens): extremely photostable
Compound: COC1=C(NCC(=O)O)CC(O)(CO)CC1=N (stereo not drawn) [palythine]
photostability ([1]; after 40SED of solar simulated radiation, 0.0001% w/v palythine from Chondrus yendoi in PBS, absorbance 280-400 nm): extremely photostable with negligible photodegradation | protection against UVR induced cell death (cell viability) (HaCaT keratinocytes): significant protection | Median corrected Average (HaCaT cells; 0.1% palythine): 36.35 | Median corrected Average (HaCaT cells; 0.3% palythine): 33.9 | total intracellular ROS generated after exposure to UVA and UVB (HaCaT cells; carboxy-H2DCFDA): significantly reduce
